# Measured values taken from paper PMC6273036, “N-Alkoxyphenylhydroxynaphthalenecarboxamides and Their Antimycobacterial Activity” (Molecules, 2016).
# Like-named read-outs stand apart in the source and are kept apart here.
# Assays:
# [1] = test system: Mycobacterium tuberculosis H37Ra ATCC 25177; assay: In vitro antimycobacterial evaluation (alamarBlue, MIC) against M. tuberculosis; assay type: cell-based; conditions: 168 h, M. tuberculosis H37Ra ATCC 25177, MIC = 90% or greater (IC90) reduction of growth, 7 days
# Experimental: The evaluation of the in vitro antimycobacterial activity of the compounds was performed against Mycobacterium tuberculosis H37Ra ATCC 25177 (MT), M. kansasii DSM 44162 (MK) and M. smegmatis ATCC 700084 (MS), see Table 1. To lower risk and make manipulation in the laboratory easier, surrogate model pathogens for M. tuberculosis can be used in laboratory studies. Avirulent M. tuberculosis strain H37Ra is very closely related to and has similar pathology as human-infecting M. tuberculosis strains, making it a good model for study especially because of the lower risk for laboratory workers. M. kansasii, the most virulent of the NTM, causes nontuberculous mycobacterial lung infections, which are now very common, and can be indistinguishable from tuberculosis. M. smegmatis is an ideal representative of a fast-growing nonpathogenic microorganism, particularly useful in studying basic cellular processes of special relevance to pathogenic mycobacteria. Therefore additionally M. kansasii and M. smegmatis were chosen as model species for screening of prospective antimycobacterial drugs to control mycobacterial diseases. The potency of the compounds was expressed as the minimum inhibitory concentration (MIC) that is defined for mycobacteria as 90% or greater (IC90) reduction of growth in comparison with the control.
# Mycobacterium tuberculosis H37Ra ATCC 25177 was grown in Middlebrook broth (MB), supplemented with Oleic-Albumin-Dextrose-Catalase (OADC) supplement (Becton, Dickinson & Comp., Franklin Lakes, NJ, USA) and mycobactin J (2 μg/mL). At log phase growth, a culture sample (10 mL) was centrifuged at 15,000 rpm/20 min using a bench top centrifuge (Model CR 4-12, Jouan Inc., Winchester, VA, USA). Following the removal of the supernatant, the pellet was washed in fresh Middlebrook 7H9GC broth and re-suspended in fresh, ODAC-supplemented MB (10 mL). The turbidity was adjusted to match McFarland standard No. 1 (3 × 10^8 cfu) with MB broth. A further 1:20 dilution of the culture was then performed in MB broth. The antimicrobial susceptibility of M. tuberculosis was investigated in a 96-well plate format. In these experiments, sterile deionised water (300 µL) was added to all outer-perimeter wells of the plates to minimize evaporation of the medium in the test wells during incubation. Each evaluated compound (100 µL) was incubated with M. tuberculosis (100 µL). Dilutions of each compound were prepared in duplicate. For all synthesized compounds, final concentrations ranged from 1000 μg/mL to 8 μg/mL. All compounds were dissolved in DMSO, and subsequent dilutions were made in supplemented MB. The plates were sealed with parafilm and incubated at 37 °C for 7 days. Following incubation, a 10% addition of alamarBlue (AbD Serotec, Kidlington, UK) was mixed into each well, and readings at 570 nm and 600 nm were taken, initially for background subtraction and subsequently after 24 h re-incubation. The background subtraction is necessary for strongly coloured compounds, where the colour may interfere with the interpretation of any colour change. For non-interfering compounds, a blue colour in the well was interpreted as the absence of growth, and a pink colour was scored as growth.
# The minimum inhibitory concentration (MIC) was defined as the lowest concentration of the compound at which no visible bacterial growth was observed, i.e., the MIC is the lowest concentration that prevented a visual colour change from blue to pink. MIC is defined for mycobacteria as 90% or greater (IC90) reduction of growth in comparison with the control. The MIC/IC90 value is routinely and widely used in bacterial assays and is a standard detection limit according to the Clinical and Laboratory Standards Institute (CLSI, www.clsi.org). Rifampicin and isoniazid (Sigma-Aldrich) were used as the standards as they are clinically used antimycobacterial drugs.
# [2] = test system: Mycobacterium kansasii DSM 44162; assay: In vitro antimycobacterial evaluation (broth dilution micro-method, MIC) against M. kansasii; assay type: cell-based; conditions: DSM44162, 168 h, M. kansasii DSM 44162, MIC = IC90, 7 days incubation, visual
# [3] = test system: M. smegmatis ATCC 700084; assay: In vitro antimycobacterial evaluation (broth dilution micro-method, MIC) against M. smegmatis; assay type: cell-based; conditions: Mycolicibacterium smegmatis, ATCC700084, 72 h; Mycobacterium smegmatis ATCC 700084; MIC = IC90; 3 days incubation, visual
# [4] = test system: Mycobacterium tuberculosis H37Ra ATCC 25177; assay: MTT assay, viability of M. tuberculosis H37Ra; assay type: cell-based; conditions: at the tested concentration equal to MICs; 7 days; positive result when viability less than 70%
# Experimental: The MTT assay is a well-characterized method of assessing cell growth through measurement of respiration. For the purpose of this assay, a positive result was recorded when the MTT measured viability of M. tuberculosis H37Ra was less than 70% after exposure to the MIC of each test compound.
# For the MTT (3-(4,5-dimethylthiazol-2-yl)-2,5-diphenyltetrazolium bromide) assay, the outer wells of a 96-well plate were filled with 200 µL of sterile water, and the inner wells were filled with 100 µL of the tested compound at the MIC to be examined. Compounds were prepared as previously stated and diluted in Middlebrook media to achieve the desired concentration. Mycobacterium tuberculosis H37Ra ATCC 25177 was suspended in ODAC supplemented Middlebrook broth at a MacFarland standard of 1.0 and then diluted 1:20, using Middlebrook broth as a diluent. The diluted mycobacteria (100 µL) were added to each well containing the compound to be tested. A negative growth control was composed of 100 µL of DMSO and 100 µL of the media, and the diluted mycobacteria in broth absent of inhibiting compounds were used as a positive growth control. All compounds and controls were prepared in triplicate. Plates were incubated at 37 °C for 7 days. After the incubation period, 10% well volume of MTT reagent was mixed into each well and incubated at 37 °C for 24 h. The reagent and media were then aspirated from the wells, to which 50 µL 99% isopropanol was then added, and the plates were read at 570 nm. The absorbance readings from the cells, grown in the presence of the tested compounds, were compared with uninhibited cell growth (using DMSO as the blank) to determine the relative percent viability. The percent viability was determined through the MTT assay. The percent viability is calculated through comparison of a measured value against that of the uninhibited control: %viability = OD570E/OD570P × 100, where OD570E is the reading from the compound-exposed cells, while OD570P is the reading from the uninhibited cells (positive control). Cytotoxic potential is determined by a percent viability of <70%.
# [5] = test system: human monocytic leukemia THP-1 cells; assay: In vitro antiproliferative assay (WST-1); conditions: THP-1, 24 h, read-out: IC50 (antiproliferative activity)
# Experimental: Human monocytic leukemia THP-1 cells were used for in vitro antiproliferative assay. Cells were obtained from the European Collection of Cell Cultures (ECACC, Salisbury, UK) and routinely cultured in RPMI 1640 medium supplemented with 10% fetal bovine serum, 2% L-glutamine, 1% penicillin and streptomycin at 37 °C with 5% CO2. Cells were passaged at approximately one-week intervals. Antiproliferative activity of the compounds was determined using a Water Soluble Tetrazolium Salts-1 (WST-1, 2-(4-iodophenyl)-3-(4-nitrophenyl)-5-(2,4-disulfophenyl)-2H-tetrazolium) assay kit (Roche Diagnostics, Mannheim, Germany) according to the manufacturer’s instructions. The tested compounds were dissolved in DMSO and added in five increasing concentrations (0.37, 1.1, 3.3, 10 and 30 μM) to the cell suspension in the culture RPMI 1640 medium. The maximum concentration of DMSO in the assays never exceeded 0.1%. Subsequently, the cells were incubated for 24 h at 37 °C with 5% CO2. For WST-1 assays, cells were seeded into 96-well plates (5 × 10^4 cells/well in 100 μL culture medium) in triplicate in serum-free RPMI 1640 medium, and measurements were taken 24 h after the treatment with the compounds. The median inhibition concentration values, IC50, were deduced through the production of a dose-response curve. All data were evaluated using GraphPad Prism 5.00 software (GraphPad Software, San Diego, CA, USA).
# [6] = test system: human monocytic leukemia THP-1 cells; conditions: assessed in this line formerly, read-out: IC50 (antiproliferative activity); cited from earlier work
SMILES,MIC [1],MIC [2],MIC [3],viability of M. tuberculosis H37Ra (MTT) [4],IC50 [5],IC50 [6]
"CCOc1ccccc1NC(=O)c1c(O)ccc2ccccc12 [Compound 3a, N-(2-Ethoxyphenyl)-2-hydroxynaphthalene-1-carboxamide]",26 µM,832 µM,832 µM,30.6%,> 30 µM,
"CCCCOc1cccc(NC(=O)c2c(O)ccc3ccccc23)c1 [Compound 5b, N-(3-Butoxyphenyl)-2-hydroxynaphthalene-1-carboxamide]",23 µM,190 µM,381 µM,7.38%,> 30 µM,
CC[C@@]1(O)C(=O)OCc2c1cc1n(c2=O)Cc2cc3ccccc3nc2-1 [camptothecin],,,,,,160 ± 70 nM
"CC(C)Oc1ccc(NC(=O)c2c(O)ccc3ccccc23)cc1 [Compound 6c, 2-Hydroxy-N-[4-(prop-2-yloxy)phenyl]naphthalene-1-carboxamide]",25 µM,99 µM,796 µM,8.96%,> 30 µM,
"CCCOc1ccc(NC(=O)c2c(O)ccc3ccccc23)cc1 [Compound 4c, 2-Hydroxy-N-(4-propoxyphenyl)naphthalene-1-carboxamide]",12 µM,99 µM,398 µM,5.90%,> 30 µM,
"CCC(C)Oc1ccc(NC(=O)c2c(O)ccc3ccccc23)cc1 (stereo not drawn) [Compound 7c, N-[4-(But-2-yloxy)phenyl]-2-hydroxynaphthalene-1-carboxamide]",23 µM,95 µM,12 µM,8.86%,> 30 µM,
"CCCCOc1cccc(NC(=O)c2ccc3ccccc3c2O)c1 [Compound 12b, N-(3-Butoxyphenyl)-1-hydroxynaphthalene-2-carboxamide]",23 µM,47 µM,190 µM,9.96%,1.8 ± 0.32 µM,
"CCC(C)Oc1cccc(NC(=O)c2c(O)ccc3ccccc23)c1 (stereo not drawn) [Compound 7b, N-[3-(But-2-yloxy)phenyl]-2-hydroxynaphthalene-1-carboxamide]",23 µM,47 µM,12 µM,7.38%,> 30 µM,
"CCC(C)Oc1cccc(NC(=O)c2ccc3ccccc3c2O)c1 (stereo not drawn) [Compound 14b, N-[3-(But-2-yloxy)phenyl]-1-hydroxynaphthalene-2-carboxamide]",23 µM,47 µM,12 µM,9.96%,1.17 ± 0.38 µM,
CCOc1ccc(NC(=O)c2c(O)ccc3ccccc23)cc1 [Compound 3c],26 µM,104 µM,832 µM,9.96%,> 30 µM,
"CCCOc1cccc(NC(=O)c2ccc3ccccc3c2O)c1 [Compound 11b, 1-Hydroxy-N-(3-propoxyphenyl)naphthalene-2-carboxamide]",24 µM,49 µM,199 µM,15.13%,1.37 ± 0.72 µM,
